Results reported in patent publication US20240018470A1, “METHOD OF MANIPULATING PLURIPOTENCY IN CELLS” (YALE UNIVERSITY, priority 2022, published 2024).

Experiments:
Format in all cases: in vivo, Xenopus tropicalis
[1] = tested on: animal pole cells (prospective ectoderm); assay: Intracellular Vm recordings in animal pole cells; conditions: stage 10 (gastrulation onset), animal pole, MO injected embryos
Text: For recordings, devitellinized, stage 10 kcnh6 or control MO injected embryos were mounted into non-toxic clay with their animal pole exposed and covered with 1/9×MR. To investigate the resting potential, animal pole cells were impaled with a high-impedance (˜70 Me), sharp microelectrode filled with 3 M KCl for intracellular recordings. The recordings were made using an Axon 200B amplifier and digitized using a Digidata 1320 digitizer. Jclamp software for Windows was used in current clamp mode. All electrodes were zeroed just before entry into the cells.
For the series of intracellular recordings in high K^+ and choline treated embryos, stage 8-9 embryos were impaled similarly with an electrode of […]. These recordings were made using a HEKA EPC10 amplifier. The present study used HEKA PatchMaster v2x67 software for Windows. […]
In experiments where embryos were evaluated for phenotypes and scored (gastrulation, left-right patterning, in situ hybridizations) the present study carried out three to five biological replicates and Fisher's exact test to evaluate statistical significance. […] For the calcium transient analyses, data was collected from three to five embryos in each experiment in three independent experiments, and statistical analyses on GCaMP/mCherry fluorescence intensity as well as Ca^2+ transient area were performed using student's t-test. […]

[2] = tested on: animal pole of stage 10 embryos; assay: Calcium imaging (GCaMP6/mCherry) of the animal pole; conditions: stage 10, 20 s time lapse
Description: GCaMP6 and mCherry mRNAs were mixed and injected into embryos at the one-cell stage. Half of these embryos were then injected with kcnh6 MO and the other half with control MO, still at the one-cell stage. Embryos were transferred at stage 10 into the round wells of a press-to-seal silicone isolator (Sigma 53685) mounted between two cover slips in 2% Methylcellulose- 1/9×MR. GcaMP6 and mCherry fluorescence was then captured for 20s (1 frame per second) via time lapse in the whole animal pole of each embryo with a 20× objective of an LSM710 confocal microscope using identical acquisition settings across Control MO and kcnh6 MO embryos. […] However, all embryos did display transient increases in GcaMP6 fluorescence, varying in intensity and spreading to multiple cells. The frames of each recording were sorted to identify the calcium transient peak (in area), and GcAMP6 fluorescence intensity was quantified at peak as a ratio to mCherry in mCherry+ cells. The maximum Ca′ transient area was calculated by demarcating in Fuji the GCaMP6(+) vs GcaMP6(−) area of the animal pole at transient peak. […]
In experiments where embryos were evaluated for phenotypes and scored (gastrulation, left-right patterning, in situ hybridizations) the present study carried out three to five biological replicates and Fisher's exact test to evaluate statistical significance. […]

[3] = tested on: Xenopus embryos; assay: Whole mount in situ hybridization for germ layer and pluripotency markers
Text: In order to generate a full-length antisense probe for X. tropicalis kcnh6, kcnh6 cDNA was cloned from stage 45 tadpole whole mRNA using primers […] ID NO:10) and […] ID NO:11) (XM_012952904.1). It was noted that kcnh6 had been misannotated as kcnh2 in the v7.1 model of the X. tropicalis genome (The present study used NCBI Annotation XP_012808358.2 to identify KCNH6). […] GRPs were dissected post fixation and prior to dehydration to detect dandy. To detect putative gene expression in the prospective endoderm (mixer, vegT, kcnh6) gastrula stage embryos were bisected to facilitate better probe access. Briefly, whole mount in situ hybridization of digoxigenin-labeled antisense probes was performed overnight, the labelled embryos were then washed, incubated with anti-digoxigenin-AP Fab fragments (Roche 11093274910), and signal was detected using BM-purple (Roche 11442074001). Normal embryonic medium is 1/9× modified Ringer's (MR) containing 11 mM NaCl, 0.2 mM KCl, 0.2 mM CaCl2), 0.1 mM Mg2Cl and 0.55 mM HEPES. […] For extracellular K^+ manipulations, the KCl concentration in 1/9×MR was modified from 0.2 mM (normal) to 20 mM (high) or 0 mM (low). […] For rapamycin, the present study created a standard stock solution of 50 mg/ml in DMSO. The stock solution was diluted 1:2500 in the appropriate embryonic media (final 20 μg/ml). […] In experiments where embryos were evaluated for phenotypes and scored (gastrulation, left-right patterning, in situ hybridizations) the present study carried out three to five biological replicates and Fisher's exact test to evaluate statistical significance. The animal cap experiment was performed twice with a total score of four to eight animal caps per experiment. […] For whole cell electrophysiological recordings, three to five embryos (two cells each) were examined for their membrane potential and statistical significance was tested by student's t-test. Graphs were designed using GraphPad Prism software. Models were created with BioRender.com.

kcnh6 MO: kcnh6 translation blocking morpholino oligonucleotide, 5′-GGTCCTCGAAGTTTAGGATAAACAT-3′, SEQ ID NO:1 (all phosphorodiamidate morpholino (PMO))
Vm [1]: −21.8±4.6 mV | animal pole area simultaneously affected by Ca^2+ transients, average [2]: 71±11% | animal pole area with simultaneous calcium increases in most embryos [2]: > 90% | embryos with myf5 lost ([3]; kcnh6 depleted embryos treated only with DMSO): 35±5% | embryos with absent ectodermin ([3]; kcnh6 depleted embryos treated with DMSO): 51±6%
